Reference: ChEMBL document CHEMBL1201862, “PubChem BioAssay data set” (2004)
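Assay format: 96-well plates, 48-hour exposure. GI50: concentration for 50% inhibition of growth.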 Calls of active or inactive are those of the source. Rule as the data show it: active = GI50 up to about 1.1 µM and inactive = higher.

How the values were obtained:
Experiment in all cases: NCI tumour cell line growth inhibition, 48 h
A549 = test system: A549
ACHN = test system: ACHN
BT-549 = test system: BT-549
CCRF-CEM = test system: CCRF-CEM
DU-145 = test system: DU-145
HCC 2998 = test system: HCC 2998
HCT-15 = test system: HCT-15
HOP-92 = test system: HOP-92
Hs-578T = test system: Hs-578T
LOX IMVI = test system: LOX IMVI
MDA-MB-435 = test system: MDA-MB-435
NCI/ADR-RES = test system: NCI/ADR-RES
OVCAR-5 = test system: OVCAR-5
RPMI-8226 = test system: RPMI-8226
SF-295 = test system: SF-295
SK-MEL-2 = test system: SK-MEL-2
SNB-75 = test system: SNB-75
SW-620 = test system: SW-620
UACC-62 = test system: UACC-62
SK-OV-3 = test system: SK-OV-3

Compound | GI50 (A549) | GI50 (ACHN) | GI50 (BT-549) | GI50 (CCRF-CEM) | GI50 (DU-145) | GI50 (HCC 2998) | GI50 (HCT-15) | GI50 (HOP-92) | GI50 (Hs-578T) | GI50 (LOX IMVI) | GI50 (MDA-MB-435) | GI50 (NCI/ADR-RES) | GI50 (OVCAR-5) | GI50 (RPMI-8226) | GI50 (SF-295) | GI50 (SK-MEL-2) | GI50 (SNB-75) | GI50 (SW-620) | GI50 (UACC-62) | GI50 (SK-OV-3)
CC1(C)Oc2ccc3ccc(=O)oc3c2C(O)C1O (stereo not drawn) | 32.2 µM (inactive) | 44.6 µM (inactive) | 22.5 µM (inactive) | 31.7 µM (inactive) | 55.8 µM (inactive) | > 100 µM (inactive) | 41.9 µM | 57.8 µM (inactive) | 52.1 µM (inactive) | 29.5 µM (inactive) | 33.7 µM (inactive) | 34 µM (inactive) | > 100 µM (inactive) | 30.2 µM (inactive) | 36.1 µM (inactive) | > 100 µM (inactive) | 38.8 µM (inactive) | 61.1 µM (inactive) | 8.39 µM (inactive) | 
O=[N+]([O-])c1ccc(N2N=C(c3ccc4ccccc4c3O)CC2c2ccc(Cl)cc2)c([N+](=O)[O-])c1 (stereo not drawn) | 30.4 µM (inactive) | 37.2 µM (inactive) | > 100 µM (inactive) | 14.2 µM (inactive) | 48.8 µM (inactive) | 46.5 µM (inactive) | 30.3 µM | 33 µM (inactive) | 37.9 µM (inactive) |  | 16.9 µM (inactive) | 30.6 µM (inactive) | > 100 µM (inactive) | 12.8 µM (inactive) | 34.7 µM (inactive) | 33.6 µM (inactive) | 73.5 µM (inactive) | 29.9 µM (inactive) | > 100 µM (inactive) | 80.2 µM (inactive)
O=C1C(Cl)=C(N2CCN(c3ccccn3)CC2)C(=O)c2c(O)ccc(O)c21 | 6.49 µM (inactive) | 2.42 µM (inactive) | 1.9 µM (inactive) | 0.37 µM (active) | 3.66 µM (inactive) | 2.51 µM (inactive) | 1.12 µM | 1.21 µM (inactive) | 1.84 µM (inactive) | 0.157 µM (active) | 4.97 µM (inactive) | 2.38 µM (inactive) | 6.08 µM (inactive) | 0.394 µM (active) | 3.78 µM (inactive) |  | 1.89 µM (inactive) | 0.665 µM (active) | 0.752 µM (active) | 8.32 µM (inactive)
O=c1[nH]nc(Cc2c[nH]c3ccccc23)o1 | > 100 µM (inactive) | > 100 µM (inactive) | > 100 µM (inactive) | > 100 µM (inactive) | > 100 µM (inactive) | > 100 µM (inactive) | > 100 µM | > 100 µM (inactive) | > 100 µM (inactive) | > 100 µM (inactive) | > 100 µM (inactive) | > 100 µM (inactive) | > 100 µM (inactive) | > 100 µM (inactive) | > 100 µM (inactive) | > 100 µM (inactive) |  | > 100 µM (inactive) | > 100 µM (inactive) | 
CC(=O)OC1=C(c2ccccc2)S(=O)(=O)c2ccccc21 | > 100 µM (inactive) | > 100 µM (inactive) | > 100 µM (inactive) | 96.4 µM (inactive) | > 100 µM (inactive) | > 100 µM (inactive) | > 100 µM | > 100 µM (inactive) | > 100 µM (inactive) | > 100 µM (inactive) | > 100 µM (inactive) | > 100 µM (inactive) | > 100 µM (inactive) | > 100 µM (inactive) | > 100 µM (inactive) | > 100 µM (inactive) | > 100 µM (inactive) | > 100 µM (inactive) | > 100 µM (inactive) | 
O=C1CCSc2c(cnc3ccccc23)N1 | > 100 µM (inactive) | > 100 µM (inactive) | 27.4 µM (inactive) | > 100 µM (inactive) | > 100 µM (inactive) |  | > 100 µM | > 100 µM (inactive) | 31.3 µM (inactive) | 58.2 µM (inactive) | > 100 µM (inactive) | > 100 µM (inactive) | > 100 µM (inactive) | > 100 µM (inactive) | > 100 µM (inactive) | 80 µM (inactive) | 27.7 µM (inactive) | > 100 µM (inactive) | > 100 µM (inactive) | > 100 µM (inactive)
CN(C)c1ccc(/C=c2/c3ccccc3n3nc4ccccc4c23)cc1 | 16.3 µM (inactive) | 38.6 µM (inactive) | 13.8 µM (inactive) | 7.98 µM (inactive) | 75.5 µM (inactive) |  | 8.32 µM | 12.8 µM (inactive) | 35.6 µM (inactive) | 18.7 µM (inactive) | 3.35 µM (inactive) | 11.1 µM (inactive) | > 100 µM (inactive) | 10.7 µM (inactive) | 13.2 µM (inactive) | 23.4 µM (inactive) | 2.49 µM (inactive) | 12.8 µM (inactive) | 15.3 µM (inactive) | 13.1 µM (inactive)
Cn1ccnc1Oc1ccc(Cl)cc1 | 34.2 µM (inactive) | 12.8 µM (inactive) | 16.9 µM (inactive) |  | 15.9 µM (inactive) | 4.57 µM (inactive) | 11.7 µM | 11 µM (inactive) | 24.4 µM (inactive) | 13.2 µM (inactive) | 12.4 µM (inactive) | 16.7 µM (inactive) | 15.6 µM (inactive) | 0.49 µM (active) |  | 16.4 µM (inactive) | 14.7 µM (inactive) | 13 µM (inactive) | 11.1 µM (inactive) | 47.4 µM (inactive)
Cc1oc2c(cc(O)c3cc(O)ccc32)c2cccc1-2 | > 100 µM (inactive) | > 100 µM (inactive) | 0.697 µM (active) | 43.5 µM (inactive) | > 100 µM (inactive) | > 100 µM (inactive) | > 100 µM | > 100 µM (inactive) | > 100 µM (inactive) | > 100 µM (inactive) | > 100 µM (inactive) | > 100 µM (inactive) | > 100 µM (inactive) | > 100 µM (inactive) | > 100 µM (inactive) | > 100 µM (inactive) | > 100 µM (inactive) | > 100 µM (inactive) | > 100 µM (inactive) | > 100 µM (inactive)
C[C@@H]1CCC2C(C)(C)C(/C=C\C=O)C3(C)OC213 (stereo partly drawn) | > 100 µM (inactive) | 71.4 µM (inactive) | 34.8 µM (inactive) |  | 29.1 µM (inactive) | 48.5 µM (inactive) | 25.4 µM | 26.5 µM (inactive) | 21.5 µM (inactive) |  | 27.5 µM (inactive) | 30 µM (inactive) | 24.5 µM (inactive) | 28.7 µM (inactive) | 35.1 µM (inactive) | 42.9 µM (inactive) | 29.1 µM (inactive) | 40.9 µM (inactive) | 53.2 µM (inactive) | 44.6 µM (inactive)
Nc1nc(O)nc2snnc12 | > 100 µM (inactive) | > 100 µM (inactive) | 3.54 µM (inactive) | 14.9 µM (inactive) | 16.9 µM (inactive) | > 65.6 µM (inactive) | > 89.7 µM | 20.3 µM (inactive) | > 54.8 µM (inactive) | 2.92 µM (inactive) | 4.59 µM (inactive) | 32.6 µM (inactive) | > 100 µM (inactive) | 5.7 µM (inactive) | 33.2 µM (inactive) | 1.75 µM (inactive) | 5.28 µM (inactive) | 5.4 µM (inactive) | 7.26 µM (inactive) | 50.2 µM (inactive)
CCN1CCCC(Nc2cc(C)nc(NC(=N)Nc3ccc(Cl)c(Cl)c3)n2)C1 (stereo not drawn) | 1.91 µM (inactive) | 2.32 µM (inactive) | 1.64 µM (inactive) | 0.63 µM (active) | 4.43 µM (inactive) | 0.551 µM (active) | 1.74 µM | 1.31 µM (inactive) | 2.02 µM (inactive) |  | 1.49 µM (inactive) | 2.78 µM (inactive) | 2.74 µM (inactive) | 0.455 µM (active) | 1.07 µM (active) | 2.04 µM (inactive) | 1.25 µM (inactive) |  | 1.85 µM (inactive) | 2.78 µM (inactive)
COc1cc2c(cc1OC)C(=O)/C(=C/c1ccc(Cl)cc1)CC2 | > 10 µM (inactive) | > 10 µM (inactive) | > 10 µM (inactive) | > 10 µM (inactive) | > 10 µM (inactive) | > 10 µM (inactive) | > 10 µM | > 10 µM (inactive) | > 10 µM (inactive) | > 10 µM (inactive) | > 10 µM (inactive) | > 10 µM (inactive) | > 10 µM (inactive) | > 10 µM (inactive) | > 10 µM (inactive) | > 10 µM (inactive) |  | > 10 µM (inactive) | > 10 µM (inactive) | > 10 µM (inactive)
O=C(COc1ccc(OCC(=O)N2C(=O)CN(c3ccccc3)C2=S)cc1)N1C(=O)CN(c2ccccc2)C1=S | > 56.1 µM (inactive) | > 53.3 µM (inactive) | > 61.4 µM (inactive) |  | > 61 µM (inactive) | > 58.5 µM (inactive) | > 54.1 µM | > 53.2 µM (inactive) | > 64.4 µM (inactive) | > 25 µM (inactive) | > 55.3 µM (inactive) | > 55.7 µM (inactive) | > 50.9 µM (inactive) | > 100 µM (inactive) | > 53 µM (inactive) | > 51.4 µM (inactive) | > 25 µM (inactive) | > 100 µM (inactive) | > 56.1 µM (inactive) | > 54.3 µM (inactive)
NC(Cc1ccccc1)(C(=O)O)C(=O)O | > 100 µM (inactive) | > 100 µM (inactive) | > 100 µM (inactive) | > 100 µM (inactive) | > 100 µM (inactive) | > 100 µM (inactive) | > 100 µM | > 100 µM (inactive) | > 100 µM (inactive) | > 100 µM (inactive) | > 100 µM (inactive) | > 100 µM (inactive) | > 100 µM (inactive) | > 100 µM (inactive) | > 100 µM (inactive) | > 100 µM (inactive) |  | > 100 µM (inactive) | > 100 µM (inactive) | > 100 µM (inactive)
